Reference: publication PMC7650794, “Pharmacological Modulation of Blood–Brain Barrier Permeability by Kinin Analogs in Normal and Pathologic Conditions” (Pharmaceuticals, 2020)
Non-standard residues stand in square brackets, D forms with d. Residues, ends and D or L forms follow the SMILES beside them. *: point of attachment. X1 = COc1ccc(C[C@@H](CN[C@@H](CCCNC(=N)N)C(=O)O)N*)cc1; Hyp = O=C(O)[C@@H]1C[C@@H](O)CN1; 2Thi = N[C@@H](Cc1cccs1)C(=O)O

What was measured:
human B2R [1] = target: T1, human B2R (Homo sapiens, UniProt P30411); assay: Radioligand displacement binding assay, [3H]BK, human B2R-HEK293 cells; conditions: displacement of 1 nM [3H]BK, living adherent HEK293 cells stably expressing human B2R, serum-free DMEM, 1.5 h, 4 °C; mean of two independent experiments performed in duplicates
T1 construct: expressed in transfected cells; host or cells: QBI HEK 293A cells, lentiviral transduction with pCDH-BDKRB2, puromycin selection
T1 sequence (P30411 1-391): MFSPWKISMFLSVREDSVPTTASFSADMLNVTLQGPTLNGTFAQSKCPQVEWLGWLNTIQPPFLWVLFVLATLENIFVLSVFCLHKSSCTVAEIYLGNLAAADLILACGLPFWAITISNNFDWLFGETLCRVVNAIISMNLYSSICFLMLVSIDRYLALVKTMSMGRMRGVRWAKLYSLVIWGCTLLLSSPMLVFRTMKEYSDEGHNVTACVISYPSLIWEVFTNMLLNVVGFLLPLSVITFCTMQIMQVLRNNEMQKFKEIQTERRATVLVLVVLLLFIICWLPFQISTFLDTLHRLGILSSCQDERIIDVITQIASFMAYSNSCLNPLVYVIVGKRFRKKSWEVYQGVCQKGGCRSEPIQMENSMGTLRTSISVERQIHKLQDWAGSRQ
Method: The pCDH-BDKRB2 vector was produced from the plasmid pcDNA3.1/human BDKRB2 by PCR amplification using the primers 5′-[…]-3′ and 5′-[…]-3′, and introduced into pCDH-CMV-MCS-EF1 vector using BamHI et XbaI restriction sites. Lentiviruses were produced from pCDH-BDKRB2 vector in HEK293T cells using the X-tremeGENE HP transfection reagent (Millipore-Sigma, Oakville, ON, Canada). Lentiviruses were harvested 48 h post-transfection and used to infect QBI HEK 293A cells (ATCC). Transduced cells were selected using 5 µg/mL of puromycin (Thermo Fisher, Burlington, On, Canada).
Radioligand displacement binding assays were performed as we previously described, with slight modifications. HEK293 cells stably expressing human B2R were used for these assays (see text above). […] Radioactivity of samples was measured by a β-scintillation counter (PerkinElmer, Woodbridge, On, Canada). Binding affinities of peptides were expressed in terms of IC50 values—the molar concentration of an unlabeled agonist causing 50% displacement of specific binding (GraphPad Prism 8.2).

human B2R [2] = target: T1, human B2R; assay: IP-One accumulation assay, human B2R-HEK293 cells; format: cell-based; conditions: IP1 accumulation, 30 min, room temperature, pH 7.4, 50 mM LiCl, human B2R-HEK293, 15,000 cells per well; mean of two independent experiments performed in duplicates; read-out: IP1 Assays (EC50; nM)
Method: The IP-One assay was performed on living, adherent human B2R-HEK293 cells according to the manufacturer’s recommendations (Cisbio, #62IPAPEB, Bedford, MA, USA). […] IP1-d2 and anti-IP1-Cryptate were added for at least 1 h. Fluorescence signal was measured using a Tecan M1000 plate reader (excitation at 320 nm and emission at 620 and 665 nm). EC50 values were calculated by curve-fitting using GraphPad Prism 8.2.

[3] = tested on: BBB, normal and focal-irradiated dog brains; conditions: in vivo, iv; cited from earlier work
Source text: Radiation therapy is part of the standard treatment paradigm for CNS tumors. The short-term effects of prior radiotherapy on the BBB opening induced by Labradimil have been investigated in normal and focal-irradiated dog brains. […] In this study, we focused on late post-radiotherapy complications leading to radionecrosis (Figure 4), which c ...

[4] = tested on: angiotensin-converting enzyme (ACE, alias kininase II); conditions: cited from earlier work

Compound: COc1ccc(C[C@@H](CN[C@@H](CCCNC(=N)N)C(=O)O)NC(=O)[C@@H]2CCCN2C(=O)[C@H](CO)NC(=O)[C@H](Cc2cccs2)NC(=O)CNC(=O)[C@@H]2C[C@@H](O)CN2C(=O)[C@@H]2CCCN2C(=O)[C@@H](N)CCCNC(=N)N)cc1 [Labradimil, [Hyp^3, Thi^5, (^4Me)Tyr^8(ΨCH2NH)Arg^9]-BK] (H-RP[Hyp]G[2Thi]SP-X1)
- IC50 (human B2R [1]): 17 nM
- EC50 (human B2R [2]): 47 nM
- vasogenic edema associated with focal radiation injury [3]: not exacerbating the vasogenic edema associated with focal radiation injury
- protection against enzymatic degradation by ACE [4]: fully protected against enzymatic degradation by the angiotensin-converting enzyme
